The values below come from patent US10344019B2 (priority 2010, dated 2019).

Experiment in all cases: microbe, parasite or virus in culture
What all share (type): cell-based

In assay [1] the test system is HCV 1a RLuc cells (dicistronic genotype 1a H77 replicon, RLuc reporter). The note with it: Hepatitis C virus, genotype 1a H77 replicon, read-out: 1a. On the procedure:
(§1) Evaluation of cell-based anti-HCV activity: Antiviral potency (EC50) was determined using a Renilla luciferase (RLuc)-based HCV replicon reporter assay. To perform the assay for genotype 1 and 2a JFH-1, HCV 1b RLuc cells (harboring a dicistronic genotype 1b Con1 replicon that encodes a RLuc reporter), or HCV 1a RLuc cells (harboring a dicistronic genotype 1a H77 replicon that encodes a RLuc reporter), or HCV 2a JFH-1 Rluc cells (harboring a dicistronic genotype 2a JFH-1 replicon that encodes a RLuc reporter) were dispensed into 384-well plates. To perform the assay for genotype 2a (with M31 present) or 2b, HCV 2a Rluc or 2b Rluc cells (both with M31 present) harboring a dicistronic NS5A chimeric genotype 2a JFH-1 replicon that encodes a RLuc reporter and either genotype 2a J6 strain NS5A gene or genotype 2b MD2b-1 NS5A gene (based on Los Alamos HCV database isolates, both with M31 present) respectively, were dispensed into 384-well plates. To perform the assay for genotype 3 and 4, HCV 3a RLuc or 4a Rluc cells harboring a dicistronic NS5A chimeric genotype 1b Con1 replicon that encodes a RLuc reporter and either a consensus genotype 3a NS5A gene or genotype 4a NS5A gene (based on Los Alamos HCV database isolates) respectively, were dispensed into 384-well plates. Compounds were re-suspended in DMSO at a concentration of 10 mM and serially diluted in DMSO either manually or using an automated pipeting instrument. Serially diluted compounds were mixed with cell culture media and added to the seeded cells. […] 72 hours later, cells were lysed and Renilla luciferase activity quantified as recommended by the manufacturer (Promega-Madison, Wis.). Non-linear regression was performed to calculate EC50 values.
For orientation: Replicon systems follow genome replication, usually without infectious particles.

Assay [2] deals with HCV 1b RLuc cells (dicistronic genotype 1b Con1 replicon, RLuc reporter). The conditions noted are these: Hepatitis C virus, read-out: 1b (nM). On the procedure:
as §1

Assay [3] deals with HCV 2a JFH-1 Rluc cells (dicistronic genotype 2a JFH-1 replicon, RLuc reporter). The note with it: Hepatitis C virus, genotype 2a JFH-1 replicon, read-out: 2a JFH. How it is done: as §1
Assay [4] concerns HCV 3a RLuc cells (NS5A chimeric genotype 1b Con1 replicon with consensus genotype 3a NS5A gene). The conditions noted are these: Hepatitis C virus. On the procedure: as §1
Setting [5] is: read-out: 3a, genotype 3a NS5A chimeric 1b Con1 replicon.

pEC50: −log10 of the molar value. Like-named read-outs stand apart in the source and are kept apart here. Where only a bound is given, the exact number is not on record here.

As for `COC(=O)NC(C(=O)N1CC2(C[C@H]1c1nc3c([nH]1)-c1ccc(-c4ccc5c(ccc6nc([C@@H]7CCCN7C(=O)[C@@H](NC(=O)OC)C(C)C)[nH]c65)c4)cc1CC3)OCCO2)C1CCOCC1` (stereo partly shown) [Example 87], the pEC50 is 9.00 to 12.00 in assay [1] (72 h, Table 2, 72 hours); 9.00 to 12.00 in assay [3] (72 h, Table 2, 72 hours); 9.00 to 12.00 in assay [4] (read-out: 3a, Table 2, genotype 3a NS5A chimeric replicon). The EC50 in assay [2] (72 h) was found to be 0.163 nM.
With `COC(=O)N[C@H](C(=O)N1CCC[C@H]1c1ncc(-c2ccc(-c3ccc4cc(-c5cnc([C@@H]6CCCN6C(=O)[C@@H](NC(=O)OC)C(C)C)[nH]5)ccc4c3)cc2)[nH]1)c1ccccc1Cl` [Example 103], the pEC50 in assay [1] (RLuc reporter), in assay [3] (RLuc reporter) and in assay [4] (setting [5]) was 9.00 to 12.00 in each case. The EC50 in assay [2] turned out to be 0.007 nM.
Consider `COC(=O)NC(C(=O)N1CCC[C@H]1c1ncc(-c2ccc(-c3ccc4cc(-c5cnc([C@@H]6CCCN6C(=O)[C@@H](NC(=O)OC)C(C)C)[nH]5)ccc4c3)cc2)[nH]1)c1ccccc1Cl` (stereo partly shown) [Example 104], for which the pEC50 in assay [1] (RLuc reporter), in assay [3] (RLuc reporter) and in assay [4] (setting [5]) was 9.00 to 12.00 in each case. Also, in assay [2], the EC50 is 0.007 nM.
For `COC(=O)N[C@H](C(=O)N1CCC[C@H]1c1ncc(-c2ccc(-c3ccc4cc(-c5cnc([C@@H]6CCCN6C(=O)[C@@H](NC(=O)OC)C(C)C)[nH]5)ccc4c3)cc2)[nH]1)c1ccccc1OC` [Example 105], the pEC50 was 7.36 to 9.00 in assay [1] (RLuc reporter), 7.36 to 9.00 in assay [3] (RLuc reporter) and 8.30 to 9.00 in assay [4] (setting [5]). In assay [2], the EC50 came to 0.042 nM.
For `COC(=O)N[C@H](C(=O)N1CCC[C@H]1c1ncc(-c2ccc(-c3ccc4cc(-c5cnc([C@@H]6CCCN6C(=O)[C@@H](NC(=O)OC)C(C)C)[nH]5)ccc4c3)cc2)[nH]1)c1ccc(Cl)cc1` [Example 106], the figures for the pEC50 in assay [1] (RLuc reporter), in assay [3] (RLuc reporter) and in assay [4] (setting [5]) were 7.36 to 9.00, 7.36 to 9.00 and 8.30 to 9.00, respectively. For the same molecule, the EC50 in assay [2] stood at 0.024 nM.
With `COC(=O)NC(C(=O)N1CCC[C@H]1c1ncc(-c2ccc(-c3ccc4cc(-c5cnc([C@@H]6CCCN6C(=O)[C@@H](NC(=O)OC)C(C)C)[nH]5)ccc4c3)cc2)[nH]1)c1ccc(Cl)cc1` (stereo partly shown) [Example 107], the results for the pEC50 in assay [1] (RLuc reporter), in assay [3] (RLuc reporter) and in assay [4] (setting [5]) were 7.36 to 9.00, 7.36 to 9.00 and 8.30 to 9.00, respectively. The EC50 in assay [2] stood at 0.024 nM.
Take `COC(=O)N[C@H](C(=O)N1CCC[C@H]1c1ncc(-c2ccc(-c3ccc4cc(-c5cnc([C@@H]6CCCN6C(=O)[C@@H](NC(=O)OC)C(C)C)[nH]5)ccc4c3)cc2)[nH]1)c1ccc(OC)cc1` [Example 108]: the pEC50 is 9.00 to 12.00 in assay [1] (RLuc reporter), 7.36 to 9.00 in assay [3] (RLuc reporter) and < 8.30 in assay [4] (setting [5]). Also, the EC50 in assay [2] is 0.028 nM.
Regarding `COC(=O)N[C@H](C(=O)N1CCC[C@H]1c1ncc(-c2ccc3cc(-c4ccc(-c5cnc([C@@H]6CCCN6C(=O)[C@H](NC(=O)OC)c6ccc(OC)cc6)[nH]5)cc4)ccc3c2)[nH]1)C(C)C` [Example 109], the pEC50 in assay [1] (RLuc reporter) was 7.36 to 9.00; in assay [3] (RLuc reporter), < 7.36; in assay [4] (setting [5]), < 8.30. In addition, in assay [2], the EC50 was 1.6 nM.
The like results for `COC(=O)N[C@H](C(=O)N1CCC[C@H]1c1ncc(-c2ccc(-c3ccc4cc(-c5cnc([C@@H]6CCCN6C(=O)C(c6ccccc6)N(C)C)[nH]5)ccc4c3)cc2)[nH]1)C(C)C` (stereo partly shown) [Example 110] were, in that order, 9.00 to 12.00, 9.00 to 12.00, 9.00 to 12.00 and 0.009 nM.
The matching figures for `COC(=O)NC(C(=O)N1CCC[C@H]1c1ncc(-c2ccc3cc(-c4ccc(-c5cnc([C@@H]6CCCN6C(=O)[C@@H](NC(=O)OC)C(C)C)[nH]5)cc4)ccc3c2)[nH]1)c1ccc(OC(F)(F)F)cc1` (stereo partly shown) [Example 111]: 7.36 to 9.00, < 7.36, < 8.30 and 0.16 nM.
Regarding `COC(=O)N[C@H](C(=O)N1Cc2ccccc2C1c1nc(-c2ccc(-c3ccc4cc(-c5cnc([C@@H]6CCCN6C(=O)[C@@H](NC(=O)OC)C(C)C)[nH]5)ccc4c3)cc2)c[nH]1)C(C)C` (stereo partly shown) [Example 112], the pEC50 in assay [1] (RLuc reporter) was 9.00 to 12.00; in assay [3] (RLuc reporter), 7.36 to 9.00; in assay [4] (setting [5]), < 8.30. Also, the EC50 in assay [2] worked out at 0.018 nM.
On to `COC(=O)N[C@H](C(=O)N1C[C@H](C)C[C@H]1c1ncc(-c2ccc(-c3ccc4cc(-c5cnc([C@@H]6C[C@H](C#N)CN6C(=O)[C@H](NC(=O)OC)c6ccccc6)[nH]5)ccc4c3)cc2)[nH]1)C(C)C` [Example 113], for which the pEC50 in assay [1] (RLuc reporter), in assay [3] (RLuc reporter) and in assay [4] (setting [5]) was 9.00 to 12.00 in each case. Besides, in assay [2], the EC50 turned out to be 0.014 nM.
Take `COC(=O)N[C@H](C(=O)N1CCC[C@H]1c1ncc(-c2ccc3cc(C#Cc4cnc([C@@H]5CCCN5C(=O)[C@H](NC(=O)OC)c5ccccc5)[nH]4)ccc3c2)[nH]1)C(C)C` [Example 115]: the pEC50 in assay [1] (RLuc reporter), in assay [3] (RLuc reporter) and in assay [4] (setting [5]) was 9.00 to 12.00 in each case. Also, the EC50 in assay [2] was 0.019 nM.
In the case of `COC(=O)N[C@H](C(=O)N1CCC[C@H]1c1ncc(-c2ccc3cc(-c4ccc(-c5cnc([C@@H]6SCCN6C(=O)[C@H](NC(=O)OC)c6ccccc6)[nH]5)cc4)ccc3c2)[nH]1)C(C)C` [Example 117], the pEC50 in assay [1] (RLuc reporter), in assay [3] (RLuc reporter) and in assay [4] (setting [5]) was 9.00 to 12.00 in each case. The EC50 in assay [2] is 0.007 nM.
For the molecule `COC(=O)N[C@H](C(=O)N1CCC[C@H]1c1ncc(-c2ccc(-c3ccc4cc(-c5cnc([C@@H]6C[C@H](C#N)CN6C(=O)[C@@H](c6ccccc6)N(C)C)[nH]5)ccc4c3)cc2)[nH]1)C(C)C` [Example 118], the pEC50 in assay [1] (RLuc reporter), in assay [3] (RLuc reporter) and in assay [4] (setting [5]) was 9.00 to 12.00 each time. In addition, in assay [2], the EC50 was determined as 0.027 nM.
In the case of `COC(=O)N(C)[C@H](C(=O)N1CCC[C@H]1c1ncc(-c2ccc3cc(-c4ccc(-c5cnc([C@@H]6CCCN6C(=O)C(c6ccccc6)N6CCOCC6)[nH]5)cc4)ccc3c2)[nH]1)C(C)C` (stereo partly shown) [Example 119], the pEC50 in assay [1] (RLuc reporter), in assay [3] (RLuc reporter) and in assay [4] (setting [5]) was 9.00 to 12.00 in each case. Also, in assay [2], the EC50 came to 0.02 nM.
With `COC(=O)N[C@H](C(=O)N1CCC[C@H]1c1ncc(-c2ccc(-c3ccc4cc(-c5cnc([C@@H]6CCCN6C(=O)C(c6ccccc6)N6CCOCC6)[nH]5)ccc4c3)cc2)[nH]1)C(C)C` (stereo partly shown) [Example 120], the pEC50 in assay [1] (RLuc reporter), in assay [3] (RLuc reporter) and in assay [4] (setting [5]) was 9.00 to 12.00 in each case. For the same molecule, the EC50 in assay [2] is 0.014 nM.
Turning to `COC(=O)N[C@H](C(=O)N1C[C@H](C)C[C@H]1c1ncc(-c2cc3cc4sc(-c5cnc([C@@H]6C[C@@H](C)CN6C(=O)[C@@H](NC(=O)OC)C(C)C)[nH]5)cc4cc3s2)[nH]1)C(C)C` [Example 121], the pEC50 in assay [1] (RLuc reporter) is 9.00 to 12.00; in assay [3] (RLuc reporter), 9.00 to 12.00; in assay [4] (setting [5]), 8.30 to 9.00. Besides, the EC50 in assay [2] was 0.011 nM.
For the molecule `COC(=O)N[C@H](C(=O)N1CCC[C@H]1c1ncc(-c2ccc3cc(-c4ccc(-c5cnc([C@@H]6C[C@H](C#N)CN6C(=O)[C@H](NC(=O)OC)c6ccccc6)[nH]5)cc4)ccc3c2)[nH]1)C(C)C` [Example 124], the pEC50 in assay [1] (RLuc reporter), in assay [3] (RLuc reporter) and in assay [4] (setting [5]) was 9.00 to 12.00 in each case. Also, the EC50 in assay [2] is 0.011 nM.
